Values after ≈ are worked out from the molar mass of the structure shown. Where two headings read alike, the source gives them in different places.
Assays:
[1] = Evaluation of amorphous free base: suspension stirred in solvent at room temperature for 2 days; type: physicochemical; details: for Result (solid form obtained): suspension stirred at room temperature for 2 days
Method: 100 mg of the amorphous free base sample obtained in the present invention was weighed and a solvent was added to form a suspension. The mixture was stirred at room temperature for 2 days, and the results are as follows: […]

[2] = Solid-state stability, 7 days at 60 °C/closed and 40 °C/75% RH (HPLC purity, XRPD); type: physicochemical; details: for Purity (Area%) 40 °C/ 75%RH / Purity (Area%) 60 °C/ Closed / XRPD 40 °C/ 75%RH / XRPD 60 °C/ Closed: 7 days; for Purity (Area%) 40 °C/ 75%RH / Purity (Area%) 60 °C/ Closed / Initial purity (Area%): HPLC; for Initial purity (Area%): before storage; for XRPD 40 °C/ 75%RH: crystal form after 40 °C/75% RH; for XRPD 60 °C/ Closed: crystal form after 60 °C/closed
Method: HPLC analysis was performed using Agilent HPLC 1260 series instruments. Table 37 HPLC Method for Solubility and Stability Tests

[3] = in vivo; details: rat, po, 10 mg/kg
Method: (§1) Blood samples were collected at different time points to determine the drug concentration in the rat plasma after administration of the test substance and relevant pharmacokinetic parameters were calculated.
(§2) The specific preparation method was as follows: 10mg of the test sample was taken, 0.5% MC and 1% Tween 80 was added, the resulting mixture was vortex mixed to obtain a solution with a concentration of 1mg/mL. The solution was freshly prepared before use, mixed well through vortex, and set aside for later use.
(§3) Healthy male SD rats or dogs were used for this study. All animals were fasted before administration and resumed feeding 4 hours after administration.
(§4) About 0.1 mL of blood was collected via the jugular vein from each animal, using EDTA or heparin sodium as anticoagulants. After collected, the blood sample was placed on ice and centrifuged to separate the plasma (centrifugation conditions: 10000 rpm, 5 minutes, and 4 °C).
(§5) The plasma samples were analyzed by LC-MS/MS by the analysis department of the experimental institution.

[4] = in vivo; details: dog, po, 5 mg/kg
Method: (§6) Blood samples were collected at different time points to determine the drug concentration in the dog plasma after administration of the test substance and relevant pharmacokinetic parameters were calculated.
as §2, §3
(§7) (Time points ≤ 2 hours: ± 2 min; other points: ± 15 min.)
as §4, §5

[5] = Pharmacokinetics in rats after a single dose by gavage; details: for in vivo exposure levels: rat pharmacokinetic data, compared with free base crystal form I; for AUC0-last / AUCINF / Cmax / T1/2 / Tmax: SD rats, single gavage dose 10mpk, 1mg/ml in 0.5% MC+1% tween 80 (Uniform suspension), 10 mg/kg
Method: as §1, §2, §3, §4, §5

[6] = Pharmacokinetics in dogs after a single dose by gavage; details: for in vivo exposure levels: dog pharmacokinetic data, compared with free base crystal form I; for AUC0-last / AUCINF / Cmax / T1/2 / Tmax: dogs, single gavage dose 5mpk, 1mg/ml in 0.5%MC+1% tween 80 (Uniform suspension), 5 mg/kg
Method: as §6, §2, §3, §7, §4, §5

[7] = physchem
[8] = Solubility test in biological media and water at 37 °C (HPLC; XRPD of residue); details: for Solubility (µg/mL) 2 h / Solubility (µg/mL) 0.5 h / Solubility (µg/mL) 24 h: calculated using free base; for Solubility (µg/mL) 2 h: 120 min; for Solubility (µg/mL) 24 h: 1440 min
[9] = physchem; remark: listed apart in the source
[10] = Rough solubility in 17 solvents by visual inspection at room temperature; details: for solubility: DMSO
[11] = tested on: tumor patients with RET fusion and mutation; details: cited from earlier work
[12] = FaSSIF (pH=6.49), LOQ: ~1.0 µg/mL
[13] = crystal form after 24 h in FaSSIF (pH=6.49)
[14] = crystal form after 24 h in FeSSIF (pH=5.00)
[15] = crystal form after 24 h in SGF (pH=1.19)
[16] = crystal form after 24 h in Water (pH=5.45)

| Compound | Purity (Area%) 40 °C/ 75%RH [2] | Purity (Area%) 60 °C/ Closed [2] | Initial purity (Area%) [2] | XRPD 40 °C/ 75%RH [2] | XRPD 60 °C/ Closed [2] | in vivo exposure levels [5] | in vivo exposure levels [6] | AUC0-last [6] | AUCINF [6] | Cmax [6] | T1/2 [6] | AUC0-last [5] | AUCINF [5] | Cmax [5] | T1/2 [5] | Tmax [5] | Tmax [6] | Solubility (µg/mL) 2 h [8, 12] | XRPD (24 h) [8, 13] | XRPD (24 h) [8, 14] | other results |
| --- | --- | --- | --- | --- | --- | --- | --- | --- | --- | --- | --- | --- | --- | --- | --- | --- | --- | --- | --- | --- | --- |
| CCn1ncc2c(Nc3cc(C)[nH]n3)nc([C@H]3CC[C@](OC)(C(=O)N[C@@H](C)c4cnc(-n5cc(F)cn5)cn4)CC3)nc21 [amorphous free base] | – | – | – | – | – | – | – | – | – | – | – | – | – | – | – | – | – | – | – | – | Result (solid form obtained) ([1]; Acetone): Free base crystal form III; Result (solid form obtained) ([1]; Methanol): Free base crystal form I; stability of the solid form in the solvent ([1]; suspension in methanol or acetone, room temperature, 2 days): unstable and easily transformed into other crystal forms |
| CCn1ncc2c(Nc3cc(C)[nH]n3)nc([C@H]3CC[C@](OC)(C(=O)N[C@@H](C)c4cnc(-n5cc(F)cn5)cn4)CC3)nc21 [Free base crystal form III] | 99.253 Area% | 99.212 Area% | 99.316 Area% | Unchanged | Unchanged | higher than those of free base crystal form I | higher than those of free base crystal form I | 763.5 ng·h/mL | 776.0 ng·h/mL | 151.5 ng/mL | 4.275 h | – | – | – | – | – | – | – | – | – | AUC(0-inf) [3]: 1260 ng·h/mL; AUC(0-t) [3]: 1250 ng·h/mL; Cmax [3]: 153 ng/mL; Tmax [3]: 6 h; half-life [3]: 3.18 h; Tmax [4]: 2 h |
| CCn1ncc2c(Nc3cc(C)[nH]n3)nc([C@H]3CC[C@](OC)(C(=O)N[C@@H](C)c4cnc(-n5cc(F)cn5)cn4)CC3)nc21 [Fumarate crystal form I] | 97.914 Area% | 98.119 Area% | 98.062 Area% | Unchanged | Unchanged | higher than those of free base crystal form I | higher than those of free base crystal form I | 3807.0 ng·h/mL | 4179.0 ng·h/mL | 617 ng/mL | 6.87 h | 1781.00 ng·h/mL | 1790.00 ng·h/mL | 247.00 ng/mL | 2.77 h | 5.00 h | 4.0 h | 5.950 µg/mL | Almost amorphous | Unchanged | solubility at 24 h ([7]; fassif, pH 6.49): 22.7 µg/mL; solubility at 0.5 h ([7]; fessif, pH 5): 84.2 µg/mL; solubility at 2 h ([7]; fessif, pH 5): 28.5 µg/mL; solubility at 24 h ([7]; fessif, pH 5): 20.9 µg/mL; solubility at 0.5 h ([7]; sgf): 210 µg/mL; solubility at 0.5 h ([7]; sgf, pH 1.19): 210 µg/mL; solubility at 2 h ([7]; sgf, pH 1.19): 204 µg/mL; solubility at 24 h ([7]; sgf, pH 1.19): 78.1 µg/mL; XRPD (24 h) [8, 15]: Unchanged; XRPD (24 h) [8, 16]: Unchanged |
| CCn1ncc2c(Nc3cc(C)[nH]n3)nc([C@H]3CC[C@](OC)(C(=O)N[C@@H](C)c4cnc(-n5cc(F)cn5)cn4)CC3)nc21 [Free base crystal form I] | – | – | – | – | – | – | – | 673.5 ng·h/mL | 684.0 ng·h/mL | 111.7 ng/mL | 2.835 h | 1172.00 ng·h/mL | 1197.00 ng·h/mL | 158.00 ng/mL | 2.69 h | 4.67 h | 3.0 h | – | – | – | solubility ([9]; 2-me-thf): 11100 to 12500 µg/mL (≈ 18.9 to 21.2 mM); solubility ([9]; acetone): 7100 to 8300 µg/mL (≈ 12.1 to 14.1 mM); solubility ([9]; dcm): 4600 to 5000 µg/mL (≈ 7.81 to 8.49 mM); solubility ([9]; ea): 2200 to 2300 µg/mL (≈ 3.74 to 3.91 mM); solubility ([9]; etoh): < 600 µg/mL; solubility ([9]; hept): < 600 µg/mL; solubility ([9]; ipa): < 600 µg/mL; solubility ([9]; ipac): 1500 to 1600 µg/mL (≈ 2.55 to 2.72 mM); solubility ([9]; mek): 6300 to 7100 µg/mL (≈ 10.7 to 12.1 mM); solubility ([9]; meoh): ~1200 µg/mL (≈ 2.04 mM); solubility ([9]; mtbe): < 600 µg/mL; solubility ([9]; n-buoh): < 600 µg/mL; solubility ([9]; thf): > 40000 µg/mL; solubility ([9]; tol): < 600 µg/mL; solubility ([9]; water): < 600 µg/mL; solubility [10]: > 40000 µg/mL; solubility ([10]; listed as free base crystal form I): >166700 µg/mL; Solubility (mg/mL) ([10]; THF): 41.7~50.0 mg/mL |
| CO[C@]1(C(=O)N[C@@H](C)c2ccc(-n3cc(F)cn3)nc2)CC[C@H](c2nc(C)cc(Nc3cc(C)[nH]n3)n2)CC1 [BLU-667] | – | – | – | – | – | – | – | – | – | – | – | – | – | – | – | – | – | – | – | – | ORR ([11]; patients with medullary thyroid carcinoma): 40%; ORR ([11]; patients with non-small cell lung cancer): 50%; overall remission rate (ORR) ([11]; tumor patients with RET fusion and mutation): 45% |
| CCn1ncc2c(Nc3cc(C)[nH]n3)nc([C@H]3CC[C@](OC)(C(=O)N[C@@H](C)c4cnc(-n5cc(F)cn5)cn4)CC3)nc21 [Malate crystal form I] | 98.742 Area% | 98.753 Area% | 98.772 Area% | Unchanged | Unchanged | higher than those of free base crystal form I | higher than those of free base crystal form I | – | – | – | – | 1209.00 ng·h/mL | 1217.00 ng·h/mL | 177.00 ng/mL | 2.31 h | 3.00 h | – | 2.650 µg/mL | Changed | Almost amorphous | Solubility (µg/mL) 0.5 h ([8]; FeSSIF (pH=5.00), 30 min): 58.771 µg/mL; Solubility (µg/mL) 2 h ([8]; FeSSIF (pH=5.00)): 19.818 µg/mL; Solubility (µg/mL) 24 h ([8]; FeSSIF (pH=5.00)): 16.658 µg/mL; Solubility (µg/mL) 0.5 h ([8]; SGF (pH=1.19), 30 min): 204.753 µg/mL; Solubility (µg/mL) 2 h ([8]; SGF (pH=1.19)): 113.155 µg/mL; Solubility (µg/mL) 24 h ([8]; SGF (pH=1.19)): 79.977 µg/mL; maximum solubility ([8]; SGF medium at 0.5 hours, 30 min): 200 µg/mL; XRPD (24 h) [8, 15]: Changed; XRPD (24 h) [8, 16]: Unchanged |

Reference: EP4714947A1, “CRYSTAL FORM OF PYRIMIDO AZACYCLO COMPOUND, AND PREPARATION METHOD THEREFOR AND USE THEREOF” (TYK Medicines, Inc., priority 2023, dated 2024)
